Data taken from US7074789B2, “Kinase inhibitors” (Amgen Inc., priority 1999, dated 2006).

Key:
Format in all cases: biochemical
[1] = biological target: T1, ErbB4 (Homo sapiens, UniProt Q15303); test: Kinase inhibition assay (33P transfer), ErbB4; settings: read-out: ErbB4-1
T1 construct: Kinases are expressed as either kinase domains or full length constructs; made in house

[2] = biological target: T2, Flt-1 (Homo sapiens, UniProt P17948); test: Kinase inhibition assay (33P transfer), Flt-1
T2 construct: Kinases are expressed as either kinase domains or full length constructs; made in house
Procedure, shortened: (§1)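 Activity read as 33P incorporation from ATP into poly(Glu,Tyr) 4:1 or poly(Arg,Ser) 3:1 substrate bound to microtiter plates, measured by scintillation after acid washing. Enzymes were affinity-purified GST or polyHis fusions (kinase domain or full length) from E. coli or baculovirus; IC50 = 50% reduction in labelled phosphate.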

[3] = biological target: T3, ErbB2 (Homo sapiens, UniProt P04626); test: Kinase inhibition assay (33P transfer), ErbB2; settings: read-out: ErbB2-2
T3 construct: Kinases are expressed as either kinase domains or full length constructs; made in house
Procedure, shortened: as §1

[4] = biological target: T4, c-Met (Homo sapiens, UniProt P08581); test: Kinase inhibition assay (33P transfer), c-Met; settings: Table 2, kinase inhibition class; read-out: Met-1
T4 construct: Kinases are expressed as either kinase domains or full length constructs; made in house
T4 sequence (P08581 25-1390): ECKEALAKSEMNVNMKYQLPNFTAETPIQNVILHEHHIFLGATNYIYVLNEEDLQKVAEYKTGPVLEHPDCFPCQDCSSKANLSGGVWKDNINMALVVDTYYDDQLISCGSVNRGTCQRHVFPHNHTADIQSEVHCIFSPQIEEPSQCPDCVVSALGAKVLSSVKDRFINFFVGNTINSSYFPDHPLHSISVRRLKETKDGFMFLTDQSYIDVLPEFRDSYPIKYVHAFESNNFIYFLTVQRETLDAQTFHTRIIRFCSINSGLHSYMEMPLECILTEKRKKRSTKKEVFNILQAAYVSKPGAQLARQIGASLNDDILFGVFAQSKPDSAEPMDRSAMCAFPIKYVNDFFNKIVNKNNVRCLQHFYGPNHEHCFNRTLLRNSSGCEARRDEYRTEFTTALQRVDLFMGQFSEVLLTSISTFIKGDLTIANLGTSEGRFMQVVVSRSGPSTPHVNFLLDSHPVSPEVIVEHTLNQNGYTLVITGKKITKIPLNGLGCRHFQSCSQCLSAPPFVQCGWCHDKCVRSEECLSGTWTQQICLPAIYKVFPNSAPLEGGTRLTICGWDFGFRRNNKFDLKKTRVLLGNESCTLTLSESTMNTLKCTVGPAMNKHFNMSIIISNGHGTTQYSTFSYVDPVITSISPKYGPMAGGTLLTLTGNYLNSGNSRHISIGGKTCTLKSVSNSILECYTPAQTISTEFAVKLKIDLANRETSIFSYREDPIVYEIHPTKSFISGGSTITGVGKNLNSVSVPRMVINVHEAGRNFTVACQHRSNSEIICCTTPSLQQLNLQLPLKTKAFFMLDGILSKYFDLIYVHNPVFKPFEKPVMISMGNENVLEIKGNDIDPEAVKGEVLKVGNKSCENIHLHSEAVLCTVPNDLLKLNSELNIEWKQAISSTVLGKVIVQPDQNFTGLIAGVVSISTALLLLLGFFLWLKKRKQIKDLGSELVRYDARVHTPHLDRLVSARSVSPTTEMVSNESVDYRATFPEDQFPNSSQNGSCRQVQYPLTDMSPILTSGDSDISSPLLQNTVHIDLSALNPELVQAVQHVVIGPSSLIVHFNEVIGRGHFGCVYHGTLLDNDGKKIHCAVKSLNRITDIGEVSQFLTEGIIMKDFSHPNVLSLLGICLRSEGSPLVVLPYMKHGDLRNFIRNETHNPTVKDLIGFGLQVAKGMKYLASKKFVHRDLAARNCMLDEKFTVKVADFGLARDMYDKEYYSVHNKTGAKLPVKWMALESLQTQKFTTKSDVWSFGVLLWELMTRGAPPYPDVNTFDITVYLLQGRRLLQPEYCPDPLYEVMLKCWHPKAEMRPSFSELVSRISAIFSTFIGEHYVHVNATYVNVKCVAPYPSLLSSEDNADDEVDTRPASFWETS
Procedure, shortened: as §1

[5] = biological target: T5, Itk (Homo sapiens, UniProt Q08881); test: Kinase inhibition assay (33P transfer), Itk; settings: read-out: Itk-1
T5 construct: Kinases are expressed as either kinase domains or full length constructs; made in house
T5 sequence (Q08881 1-620): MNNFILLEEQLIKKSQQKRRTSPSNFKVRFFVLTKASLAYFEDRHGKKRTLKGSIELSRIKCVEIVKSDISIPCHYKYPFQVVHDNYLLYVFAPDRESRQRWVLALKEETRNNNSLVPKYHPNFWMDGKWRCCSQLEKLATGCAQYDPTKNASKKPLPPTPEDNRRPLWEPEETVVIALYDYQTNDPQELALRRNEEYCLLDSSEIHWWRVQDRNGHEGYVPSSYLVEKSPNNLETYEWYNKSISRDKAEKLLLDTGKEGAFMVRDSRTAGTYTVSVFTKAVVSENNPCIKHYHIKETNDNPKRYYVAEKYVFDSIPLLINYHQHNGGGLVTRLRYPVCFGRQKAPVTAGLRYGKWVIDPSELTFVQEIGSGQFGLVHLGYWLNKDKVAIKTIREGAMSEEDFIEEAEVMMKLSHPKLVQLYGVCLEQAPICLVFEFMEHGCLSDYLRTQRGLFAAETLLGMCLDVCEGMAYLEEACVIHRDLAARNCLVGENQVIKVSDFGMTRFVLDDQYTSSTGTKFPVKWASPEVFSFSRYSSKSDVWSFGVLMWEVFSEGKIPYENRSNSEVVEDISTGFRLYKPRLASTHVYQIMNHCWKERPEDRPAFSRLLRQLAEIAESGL
Procedure, shortened: as §1

[6] = biological target: T6, Hck-1 (Homo sapiens, UniProt P08631); test: Kinase inhibition assay (33P transfer), Hck; settings: Table 6, Hck-1 kinase inhibition class
T6 construct: Kinases are expressed as either kinase domains or full length constructs; made in house

[7] = biological target: T7, Tek (Homo sapiens, UniProt Q02763); test: Kinase inhibition assay (33P transfer), Tek; settings: read-out: Tek-1
T7 construct: Kinases are expressed as either kinase domains or full length constructs; made in house
T7 sequence (Q02763 23-1124, species assumed): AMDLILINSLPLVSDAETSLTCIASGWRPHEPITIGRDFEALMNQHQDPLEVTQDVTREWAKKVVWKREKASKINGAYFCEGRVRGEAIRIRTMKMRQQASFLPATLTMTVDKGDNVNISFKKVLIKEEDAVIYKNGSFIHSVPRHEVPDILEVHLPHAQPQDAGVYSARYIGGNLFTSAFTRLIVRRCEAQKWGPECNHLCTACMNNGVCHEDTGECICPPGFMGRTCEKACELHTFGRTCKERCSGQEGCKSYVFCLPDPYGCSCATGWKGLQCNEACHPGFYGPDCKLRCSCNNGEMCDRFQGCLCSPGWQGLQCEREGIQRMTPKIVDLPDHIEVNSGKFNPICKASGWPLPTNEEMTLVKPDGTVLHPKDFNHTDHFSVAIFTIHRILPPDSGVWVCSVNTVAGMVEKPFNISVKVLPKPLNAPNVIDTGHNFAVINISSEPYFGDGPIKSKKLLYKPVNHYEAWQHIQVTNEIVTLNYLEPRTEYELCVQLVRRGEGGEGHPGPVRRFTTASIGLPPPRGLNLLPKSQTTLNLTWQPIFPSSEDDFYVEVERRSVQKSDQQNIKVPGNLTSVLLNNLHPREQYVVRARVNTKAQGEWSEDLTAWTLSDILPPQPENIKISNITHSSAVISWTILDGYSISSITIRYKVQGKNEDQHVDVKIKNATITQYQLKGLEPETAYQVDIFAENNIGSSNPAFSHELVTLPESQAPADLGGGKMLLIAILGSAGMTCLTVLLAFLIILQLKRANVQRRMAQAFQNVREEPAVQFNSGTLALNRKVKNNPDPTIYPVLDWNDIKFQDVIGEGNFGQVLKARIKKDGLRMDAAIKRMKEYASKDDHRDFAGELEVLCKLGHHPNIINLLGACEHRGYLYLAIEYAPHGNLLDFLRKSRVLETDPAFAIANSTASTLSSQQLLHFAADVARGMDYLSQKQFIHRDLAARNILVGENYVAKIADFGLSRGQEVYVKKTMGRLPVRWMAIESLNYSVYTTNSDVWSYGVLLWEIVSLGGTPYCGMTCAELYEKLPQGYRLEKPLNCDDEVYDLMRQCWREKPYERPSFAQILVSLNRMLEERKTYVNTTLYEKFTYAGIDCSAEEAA
Procedure, shortened: as §1

[8] = biological target: T8, Src (Homo sapiens, UniProt P12931); test: Kinase inhibition assay (33P transfer), Src; settings: Table 6, Src-1 kinase inhibition class
T8 construct: Kinases are expressed as either kinase domains or full length constructs; made in house
T8 sequence (P12931 whole entry, species assumed, the tested form may be a part): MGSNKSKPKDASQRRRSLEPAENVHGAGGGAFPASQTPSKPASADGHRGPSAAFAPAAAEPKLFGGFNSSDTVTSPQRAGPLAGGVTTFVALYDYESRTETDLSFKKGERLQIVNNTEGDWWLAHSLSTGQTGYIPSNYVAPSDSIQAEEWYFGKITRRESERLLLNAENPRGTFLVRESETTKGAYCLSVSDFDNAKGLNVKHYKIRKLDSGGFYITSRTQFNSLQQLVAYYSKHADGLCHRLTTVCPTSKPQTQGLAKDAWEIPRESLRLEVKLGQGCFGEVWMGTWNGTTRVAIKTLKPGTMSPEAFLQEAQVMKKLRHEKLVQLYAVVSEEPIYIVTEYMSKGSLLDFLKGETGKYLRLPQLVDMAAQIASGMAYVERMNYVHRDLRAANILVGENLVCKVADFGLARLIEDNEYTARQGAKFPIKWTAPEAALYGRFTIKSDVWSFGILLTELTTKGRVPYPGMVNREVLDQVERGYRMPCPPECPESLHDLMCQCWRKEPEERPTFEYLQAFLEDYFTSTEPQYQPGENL
Procedure, shortened: as §1

[9] = biological target: T9, Lyn (Homo sapiens, UniProt P07948); test: Kinase inhibition assay (33P transfer), Lyn; settings: Table 6, Lyn-1 kinase inhibition class
T9 construct: Kinases are expressed as either kinase domains or full length constructs; made in house
T9 sequence (P07948 whole entry, species assumed, the tested form may be a part): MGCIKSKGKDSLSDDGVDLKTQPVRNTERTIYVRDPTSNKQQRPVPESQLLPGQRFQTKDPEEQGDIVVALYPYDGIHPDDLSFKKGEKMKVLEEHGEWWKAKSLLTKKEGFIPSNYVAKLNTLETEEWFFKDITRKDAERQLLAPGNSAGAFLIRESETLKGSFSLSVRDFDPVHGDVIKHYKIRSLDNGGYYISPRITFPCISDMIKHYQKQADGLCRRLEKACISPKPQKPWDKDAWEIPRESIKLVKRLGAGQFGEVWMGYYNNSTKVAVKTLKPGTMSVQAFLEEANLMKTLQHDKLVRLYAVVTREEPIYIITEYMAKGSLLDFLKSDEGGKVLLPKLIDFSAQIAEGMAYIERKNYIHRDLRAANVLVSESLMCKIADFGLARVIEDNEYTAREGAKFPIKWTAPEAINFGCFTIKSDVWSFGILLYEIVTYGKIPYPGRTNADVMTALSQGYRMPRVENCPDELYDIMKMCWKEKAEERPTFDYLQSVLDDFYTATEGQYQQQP
Procedure, shortened: as §1

[10] = biological target: T10, Ret-1 (Homo sapiens, UniProt P07949); test: Kinase inhibition assay (33P transfer), Ret; settings: Table 6, Ret-1 kinase inhibition class
T10 construct: Kinases are expressed as either kinase domains or full length constructs; made in house

[11] = biological target: T11, IGFR-1 (Homo sapiens, UniProt P08069); test: Kinase inhibition assay, IGFR-1 (Table 2); settings: Table 2, kinase inhibition class
T11 construct: Kinases are expressed as either kinase domains or full length constructs; made in house
T11 sequence (P08069 31-1367): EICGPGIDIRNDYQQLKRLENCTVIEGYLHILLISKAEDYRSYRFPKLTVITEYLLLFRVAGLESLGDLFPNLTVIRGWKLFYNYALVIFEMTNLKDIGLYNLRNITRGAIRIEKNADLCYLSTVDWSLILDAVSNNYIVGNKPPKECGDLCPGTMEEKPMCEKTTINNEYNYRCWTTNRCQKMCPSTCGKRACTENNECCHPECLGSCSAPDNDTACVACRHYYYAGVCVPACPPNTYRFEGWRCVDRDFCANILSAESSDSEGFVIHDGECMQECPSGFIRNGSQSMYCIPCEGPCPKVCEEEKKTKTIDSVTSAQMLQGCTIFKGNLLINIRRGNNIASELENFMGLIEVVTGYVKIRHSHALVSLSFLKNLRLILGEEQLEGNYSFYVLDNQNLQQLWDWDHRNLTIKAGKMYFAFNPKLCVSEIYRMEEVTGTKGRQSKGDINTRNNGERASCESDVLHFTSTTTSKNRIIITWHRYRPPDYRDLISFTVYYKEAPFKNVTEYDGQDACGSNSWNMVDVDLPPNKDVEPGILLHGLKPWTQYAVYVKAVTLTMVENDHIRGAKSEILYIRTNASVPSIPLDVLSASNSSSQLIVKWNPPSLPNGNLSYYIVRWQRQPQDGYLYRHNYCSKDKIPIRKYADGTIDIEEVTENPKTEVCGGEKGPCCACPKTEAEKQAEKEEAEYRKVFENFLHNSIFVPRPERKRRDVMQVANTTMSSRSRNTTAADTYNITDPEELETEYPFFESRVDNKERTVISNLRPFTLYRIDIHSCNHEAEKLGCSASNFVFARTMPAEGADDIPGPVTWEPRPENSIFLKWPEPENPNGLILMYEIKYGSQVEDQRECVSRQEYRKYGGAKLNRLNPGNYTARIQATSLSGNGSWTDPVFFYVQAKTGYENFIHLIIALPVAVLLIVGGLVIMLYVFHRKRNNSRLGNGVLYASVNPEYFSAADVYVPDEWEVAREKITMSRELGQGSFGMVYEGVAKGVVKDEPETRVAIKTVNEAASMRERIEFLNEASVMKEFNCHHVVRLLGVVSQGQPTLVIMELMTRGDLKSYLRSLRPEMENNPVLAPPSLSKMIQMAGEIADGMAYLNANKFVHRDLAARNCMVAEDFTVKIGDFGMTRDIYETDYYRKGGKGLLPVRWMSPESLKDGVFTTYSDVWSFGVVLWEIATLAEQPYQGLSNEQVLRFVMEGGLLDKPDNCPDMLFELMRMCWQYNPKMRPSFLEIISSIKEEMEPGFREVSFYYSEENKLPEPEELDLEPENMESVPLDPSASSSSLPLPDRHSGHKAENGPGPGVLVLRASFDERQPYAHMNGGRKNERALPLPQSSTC

[12] = biological target: T12, Kdr (Homo sapiens, UniProt P35968); test: Kinase inhibition assay (33P transfer), Kdr; settings: read-out: KDR-1
T12 construct: Kinases are expressed as either kinase domains or full length constructs; made in house
Procedure, shortened: (§2)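 Kinase domain or full-length constructs, GST- or polyHis-tagged, expressed in E. coli or baculovirus-High Five cells, sometimes with regulatory polypeptides. Activity measured as 33PO4 transfer from ATP to plate-bound poly(Glu,Tyr) 4:1 or poly(Arg,Ser) 3:1; after incubation, plates washed with 0.5% phosphoric acid and counted by liquid scintillation.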

[13] = biological target: T13, FGFR1 (Homo sapiens, UniProt P11362); test: Kinase inhibition assay (33P transfer), FGFR1; settings: read-out: FGFR1-1
T13 construct: Kinases are expressed as either kinase domains or full length constructs; made in house

[14] = biological target: T14, EGFR (Homo sapiens, UniProt P00533); test: Kinase inhibition assay (33P transfer), EGFR; settings: Table 2, kinase inhibition class; read-out: EGFR-1
T14 construct: Kinases are expressed as either kinase domains or full length constructs; made in house
Procedure, shortened: as §1

[15] = biological target: T15, AKT (Homo sapiens, UniProt Q9Y243); test: Kinase inhibition assay (33P transfer), AKT; settings: Table 2, kinase inhibition class; read-out: AKT3-1
T15 construct: Kinases are expressed as either kinase domains or full length constructs; made in house
Procedure, shortened: as §2

[16] = biological target: T16, Zap-70 (Homo sapiens, UniProt P43403); test: Kinase inhibition assay (33P transfer), Zap-70; settings: read-out: Zap-1
T16 construct: Kinases are expressed as either kinase domains or full length constructs; made in house
T16 sequence (P43403 1-619): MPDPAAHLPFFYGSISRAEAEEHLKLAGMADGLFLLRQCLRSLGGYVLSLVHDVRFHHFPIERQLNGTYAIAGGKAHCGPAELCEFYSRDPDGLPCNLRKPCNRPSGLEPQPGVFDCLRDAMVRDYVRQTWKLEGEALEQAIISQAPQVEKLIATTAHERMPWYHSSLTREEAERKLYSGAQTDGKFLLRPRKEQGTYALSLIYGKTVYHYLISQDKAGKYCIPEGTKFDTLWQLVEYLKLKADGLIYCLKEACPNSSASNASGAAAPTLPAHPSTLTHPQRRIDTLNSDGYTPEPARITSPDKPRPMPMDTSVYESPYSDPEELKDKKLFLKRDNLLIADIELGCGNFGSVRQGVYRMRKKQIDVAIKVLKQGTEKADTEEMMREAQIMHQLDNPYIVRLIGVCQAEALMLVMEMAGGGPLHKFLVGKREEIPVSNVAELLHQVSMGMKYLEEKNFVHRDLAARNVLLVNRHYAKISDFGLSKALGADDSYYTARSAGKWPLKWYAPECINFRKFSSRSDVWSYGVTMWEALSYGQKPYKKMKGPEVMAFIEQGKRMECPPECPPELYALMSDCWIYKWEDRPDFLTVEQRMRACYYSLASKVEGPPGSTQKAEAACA
Procedure, shortened: as §2

[17] = biological target: T17, PDGFRB (Homo sapiens, UniProt P09619); test: Kinase inhibition assay (33P transfer), PDGFRB; settings: read-out: PDGFRB-1
T17 construct: Kinases are expressed as either kinase domains or full length constructs; made in house

[18] = biological target: T18, Fyn (Homo sapiens, UniProt P06241); test: Kinase inhibition assay (33P transfer), Fyn; settings: read-out: Fyn-1
T18 construct: Kinases are expressed as either kinase domains or full length constructs; made in house
Procedure, shortened: as §1

[19] = biological target: T19, Lck (Homo sapiens, UniProt P06239); test: Kinase inhibition assay (33P transfer), Lck; settings: read-out: Lck-1
T19 construct: Kinases are expressed as either kinase domains or full length constructs; made in house
Procedure, shortened: as §2

Row | IC50 [1] [µM] | IC50 [2] [µM] | IC50 [3] [µM] | IC50 [4] [µM] | IC50 [5] [µM] | IC50 [6] [µM] | IC50 [7] [µM] | IC50 [8] [µM] | IC50 [9] [µM] | IC50 [10] [µM] | IC50 [11] [µM] | IC50 [12] [µM] | IC50 [13] [µM] | IC50 [14] [µM] | IC50 [15] [µM] | IC50 [16] [µM] | IC50 [17] [µM] | IC50 [18] [µM] | IC50 [19] [µM] | SMILES
1 | 0.798 to 4.79 | 0.798 to 4.79 | 4.79 to 6.98 | > 8.97 | > 8.97 | > 8.97 | > 8.97 | > 8.97 | < 0.798 | < 0.798 | > 8.97 | < 0.798 | < 0.798 | > 8.97 | > 8.97 | > 8.97 | < 0.798 | > 8.97 | 0.798 to 4.79 | COc1cc(Nc2ncnc(-n3c(NCc4ccccc4F)nc4ccccc43)n2)cc(OC)c1OC [Compound 512]
2 | 4.79 to 6.98 | < 0.798 | 6.98 to 8.97 | > 8.97 | > 8.97 | > 8.97 | > 8.97 | 6.98 to 8.97 | 0.798 to 4.79 | < 0.798 | 6.98 to 8.97 | < 0.798 | < 0.798 | 6.98 to 8.97 | > 8.97 | > 8.97 | < 0.798 | 6.98 to 8.97 | 0.798 to 4.79 | COc1cc(Nc2ncnc(-n3c(NCc4cccc(F)c4)nc4ccccc43)n2)cc(OC)c1OC [Compound 513]
3 | > 8.97 | < 0.798 | > 8.97 | > 8.97 | > 8.97 | > 8.97 | > 8.97 | > 8.97 | > 8.97 | < 0.798 | > 8.97 | < 0.798 | < 0.798 | > 8.97 | > 8.97 | > 8.97 | < 0.798 | > 8.97 | > 8.97 | COc1cc(Nc2ncnc(-n3c(NCc4ccc(F)cc4)nc4ccccc43)n2)cc(OC)c1OC [Compound 514]

The remaining lines, values behind:

Row | SMILES | IC50 [1] [µM] | IC50 [2] [µM] | IC50 [3] [µM] | IC50 [4] [µM] | IC50 [5] [µM] | IC50 [6] [µM] | IC50 [7] [µM] | IC50 [8] [µM] | IC50 [9] [µM] | IC50 [10] [µM] | IC50 [11] [µM] | IC50 [12] [µM] | IC50 [13] [µM] | IC50 [14] [µM] | IC50 [15] [µM] | IC50 [16] [µM] | IC50 [17] [µM] | IC50 [18] [µM] | IC50 [19] [µM]
4 | Nc1nc2ccccc2n1-c1ncnc(Nc2ccc(N3CCOCC3)cc2)n1 [Compound 479] | 9.01 to 11.6 | 1.03 to 6.18 | 6.18 to 9.01 | 6.18 to 9.01 | 6.18 to 9.01 | > 11.6 | > 11.6 | > 11.6 | 9.01 to 11.6 | 1.03 to 6.18 | < 1.03 | 1.03 to 6.18 | 1.03 to 6.18 | 9.01 to 11.6 | > 11.6 | > 11.6 | 6.18 to 9.01 | > 11.6 | 1.03 to 6.18
5 | COc1cc(Nc2ncnc(-n3c(NCCc4ccccc4)nc4ccccc43)n2)cc(OC)c1OC [Compound 509] | 0.804 to 4.82 | 0.804 to 4.82 | 4.82 to 7.03 | > 9.04 | 4.82 to 7.03 | > 9.04 | 7.03 to 9.04 | > 9.04 | 0.804 to 4.82 | < 0.804 | > 9.04 | < 0.804 | 0.804 to 4.82 | 0.804 to 4.82 | > 9.04 | > 9.04 | 0.804 to 4.82 | > 9.04 | 0.804 to 4.82
6 | COc1cc(Nc2ncnc(-n3c(NCCc4ccccn4)nc4ccccc43)n2)cc(OC)c1OC [Compound 510] | > 9.03 | 0.802 to 4.81 | > 9.03 | > 9.03 | 0.802 to 4.81 | > 9.03 | > 9.03 | > 9.03 | > 9.03 | 0.802 to 4.81 | > 9.03 | < 0.802 | 0.802 to 4.81 | > 9.03 | > 9.03 | > 9.03 | 4.81 to 7.02 | > 9.03 | 0.802 to 4.81
7 | COc1cc(Nc2ncnc(-n3c(NCc4ccccc4C)nc4ccccc43)n2)cc(OC)c1OC [Compound 511] | 0.804 to 4.82 | < 0.804 | 7.03 to 9.04 | > 9.04 | > 9.04 | > 9.04 | 7.03 to 9.04 | > 9.04 | 0.804 to 4.82 | < 0.804 | > 9.04 | < 0.804 | < 0.804 | > 9.04 | > 9.04 | > 9.04 | < 0.804 | > 9.04 | < 0.804
